Test results as given in patent US20230374038A1, “MODULATORS OF CYSTIC FIBROSIS TRANSMEMBRANE CONDUCTANCE REGULATOR” (VERTEX PHARMACEUTICALS INCORPORATED, priority 2020, published 2023).

Molecular target: CFTR (Homo sapiens, UniProt P13569)
Experiment: Membrane Potential Dye, Enteroid Assay B
Assay type: cell-based
Settings: for EC50: read-out: Ent. B EC50
Protocol: Base medium (ADF+++) consisted of Advanced DMEM/Ham's F12, 2 mM Glutamax, 10 mM HEPES, 1 µg/mL penicillin/streptomycin.
Intestinal enteroid maintenance medium (IEMM) consisted of ADF+++, 1× B27 supplement, 1× N2 supplement, 1.25 mM N-acetyl cysteine, 10 mM Nicotinamide, 50 ng/mL hEGF, 10 nM Gastrin, 1 pg/mL hR-spondin-1, 100 ng/mL hNoggin, TGF-b type 1 inhibitor A-83-01, 100 μg/mL Primocin, […] P38 MAPK inhibitor SB202190.
Bath 1 Buffer consisted of 1 mM MgCl2, 160 mM NaCl, 4.5 mM KCl, 10 mM HEPES, 10 mM Glucose, 2 mM CaCl2).
Chloride Free Buffer consisted of 1 mM Magnesium Gluconate, 2 mM Calcium Gluconate, 4.5 mM Potassium Gluconate, 160 mM Sodium Gluconate, 10 mM HEPES, 10 mM Glucose.
Bath1 Dye Solution consisted of Bath 1 Buffer, 0.04% Pluronic F127, […] Methyl Oxonol, 30 μM CaCCinh-A01, 30 μM Chicago Sky Blue.
Chloride Free Dye Solution consisted of Chloride Free Buffer, 0.04% Pluronic F127, 20 μM Methyl Oxonol, 30 μM CaCCinh-A01, 30 μM Chicago Sky Blue.
Chloride Free Dye Stimulation Solution consisted of Chloride Free Dye Solution, 10 μM forskolin, 100 μM IBMX, and 300 nM Compound III.
Human intestinal epithelial enteroid cells were obtained from the Hubrecht Institute for Developmental Biology and Stem Cell Research, Utrecht, The Netherlands and expanded in T-Flasks as previously described (Dekkers J F, Wiegerinck C L, de Jonge H R, Bronsveld I, Janssens H M, de Winter-de Groot K M, Brandsma A M, de Jong N W M, Bijvelds M J C, Scholte B J, Nieuwenhuis E E S, van den Brink S, Clevers H, van der Ent C K, Middendorp S and M Beekman J M. A functional CFTR assay using primary cystic fibrosis intestinal organoids. Nat Med. 2013 July; 19(7):939-45.).
Cells were recovered in cell recovery solution, collected by centrifugation at 650 rpm for 5 min at 4° C., resuspended in TryPLE and incubated for 5 min at 37° C. Cells were then collected by centrifugation at 650 rpm for 5 min at 4° C. and resuspended in IEMM containing 10 μM ROCK inhibitor (RI). The cell suspension was passed through a 40 μm cell strainer and resuspended at 1×10^6 cells/mL in IEMM containing 10 μM RI. Cells were seeded at 5000 cells/well into multi-well plates and incubated for overnight at 37° C., 95% humidity and 5% CO2 prior to assay.
Enteroid cells were incubated with test compound in IEMM for 18-24 hours at 37° C., 95% humidity and 5% CO2. […] Briefly, cells were washed 5 times in Bath 1 Buffer. Bath 1 Dye Solution was added and the cells were incubated for 25 min at room temperature. Following dye incubation, cells were washed 3 times in Chloride Free Dye Solution. Chloride transport was initiated by addition of Chloride Free Dye Stimulation Solution and the fluorescence signal was read for 15 min. […] Chloride transport was then expressed as a percentage of the chloride transport following treatment with 1 μM (14S)-8-[3-(2-{Dispiro[2.0.2.1]heptan-7-yl}ethoxy)-1H-pyrazol-1-yl]-12,12-dimethyl-2λ^6-thia-3,9,11,18,23-pentaazatetracyclo[17.3.1.111,14.05,10]tetracosa-1(22),5,7,9,19(23),20-hexaene-2,2,4-trione, 3 μM (R)-1-(2,2-difluorobenzo[d][1,3]dioxol-5-yl)-N-(1-(2,3-dihydroxypropyl)-6-fluoro-2-(1-hydroxy-2-methylpropan-2-yl)-1H-indol-5-yl)cyclopropanecarboxamide and 300 nM acute N-[2,4-bis(1,1-dimethylethyl)-5-hydroxyphenyl]-1,4-dihydro-4-oxoquinoline-3-carboxamide triple combination control (% Activity).

Sequence of CFTR (P13569 with tags, fused parts or gaps DEL508-508): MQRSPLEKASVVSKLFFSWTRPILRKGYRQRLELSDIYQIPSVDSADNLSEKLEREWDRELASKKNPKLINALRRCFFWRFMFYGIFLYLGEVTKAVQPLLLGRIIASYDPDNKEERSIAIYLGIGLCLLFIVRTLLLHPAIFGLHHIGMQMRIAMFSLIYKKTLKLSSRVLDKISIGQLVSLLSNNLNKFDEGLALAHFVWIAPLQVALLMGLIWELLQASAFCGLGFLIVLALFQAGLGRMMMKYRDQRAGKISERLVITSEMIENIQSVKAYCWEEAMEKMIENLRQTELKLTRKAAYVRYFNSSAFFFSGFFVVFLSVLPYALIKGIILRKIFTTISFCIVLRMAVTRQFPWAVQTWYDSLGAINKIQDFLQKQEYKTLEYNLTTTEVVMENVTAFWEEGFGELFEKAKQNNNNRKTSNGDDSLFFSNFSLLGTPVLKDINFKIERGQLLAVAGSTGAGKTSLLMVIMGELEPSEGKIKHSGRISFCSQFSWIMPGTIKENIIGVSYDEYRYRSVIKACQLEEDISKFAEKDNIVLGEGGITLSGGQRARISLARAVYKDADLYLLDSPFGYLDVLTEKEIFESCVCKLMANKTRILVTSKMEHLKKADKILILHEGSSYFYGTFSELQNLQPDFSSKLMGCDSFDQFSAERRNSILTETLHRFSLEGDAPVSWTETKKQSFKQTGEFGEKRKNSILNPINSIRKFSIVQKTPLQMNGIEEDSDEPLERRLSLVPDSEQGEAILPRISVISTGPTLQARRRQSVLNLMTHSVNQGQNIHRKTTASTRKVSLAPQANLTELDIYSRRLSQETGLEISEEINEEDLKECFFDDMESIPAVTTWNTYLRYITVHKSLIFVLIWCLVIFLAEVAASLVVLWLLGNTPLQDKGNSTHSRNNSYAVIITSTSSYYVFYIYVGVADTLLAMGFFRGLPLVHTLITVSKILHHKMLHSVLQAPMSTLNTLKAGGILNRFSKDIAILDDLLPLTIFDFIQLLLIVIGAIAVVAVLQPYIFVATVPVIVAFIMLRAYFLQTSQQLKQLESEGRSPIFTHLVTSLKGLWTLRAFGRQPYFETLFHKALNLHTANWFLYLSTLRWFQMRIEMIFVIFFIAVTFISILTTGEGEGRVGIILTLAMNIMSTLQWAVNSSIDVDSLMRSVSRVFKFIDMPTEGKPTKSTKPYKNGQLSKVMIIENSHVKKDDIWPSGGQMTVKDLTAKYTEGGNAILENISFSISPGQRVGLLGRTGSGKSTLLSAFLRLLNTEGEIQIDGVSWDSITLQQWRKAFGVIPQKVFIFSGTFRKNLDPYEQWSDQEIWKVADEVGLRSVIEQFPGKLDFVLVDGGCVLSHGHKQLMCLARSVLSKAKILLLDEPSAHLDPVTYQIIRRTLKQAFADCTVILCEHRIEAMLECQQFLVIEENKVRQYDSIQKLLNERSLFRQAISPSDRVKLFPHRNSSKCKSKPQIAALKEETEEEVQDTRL

Structure (SMILES)	Ent. B Max Activity	EC50 [nM]
COC1CC(N2C(=O)c3cccc(c3)S(=O)(=O)Nc3nc(c(C)c(-c4c(C)cccc4C)n3)OC[C@H]2CC2(C(F)(F)F)CC2)C1 (some centres unmarked) [Compound 99]	+++ (+++ is >60%)	< 1000
Cc1cccc(C)c1-c1nc2nc(c1C1CCN(C(=O)OC(C)(C)C)CC1)OC[C@@H](C)NC(=O)c1cccc(c1)S(=O)(=O)N2 [Compound 141]	+ (+ is <30%)	–
Cc1cccc(C)c1-c1nc2nc(c1CCC(C)(C)C)OC[C@@H](C)NC(=O)c1cccc(c1)S(=O)(=O)N2 [Compound 125, (11R)-7-(3,3-Dimethylbutyl)-6-(2,6-dimethylphenyl)-11-methyl-2,2-dioxo-9-oxa-2λ^6-thia-3,5,12,19-tetrazatricyclo[12.3.1.14,8]nonadeca-1(18),4(19),5,7,14,16-hexaen-13-one]	++ (++ is 30-60%)	< 1000
COC(=O)NC1CC2(C1)CC(N1C(=O)c3cccc(c3)S(=O)(=O)Nc3nc(c(C)c(-c4c(C)cccc4C)n3)OC[C@H]1CC1(C(F)(F)F)CC1)C2 (stereo in doubt) [Compound 88]	+++ (+++ is >60%)	< 1000
Cc1cccc(C)c1-c1nc2nc(c1C)OC[C@@H](CC(C)(C)O)N(C1CC3(CC3)C1)C(=O)c1cccc(c1)S(=O)(=O)N2 [Compound 108, (11R)-6-(2,6-Dimethylphenyl)-11-(2-hydroxy-2-methyl-propyl)-7-methyl-2,2-dioxo-12-spiro[2.3]hexan-5-yl-9-oxa-2λ^6-thia-3,5,12,19-tetrazatricyclo[12.3.1.14,8]nonadeca-1(18),4(19),5,7,14,16-hexaen-13-one]	+++ (+++ is >60%)	1000 to 3000
Cc1cccc(C)c1-c1nc2nc(c1C)OC[C@@H](CC(C)(C)C)N(C1CC3(CC(N(C)C)C3)C1)C(=O)c1cccc(c1)S(=O)(=O)N2 (some centres unmarked) [Compound 94]	+++ (+++ is >60%)	< 1000
Cc1cccc(C)c1-c1nc2nc(c1C)OC[C@@H](CC(C)(C)C)N(C1CC3(CC(CO)C3)C1)C(=O)c1cccc(c1)S(=O)(=O)N2 (stereo in doubt) [Compound 78]	+++ (+++ is >60%)	< 1000
Cc1cccc(C)c1-c1nc2nc(c1C)O[C@H](C)CN(C1CC3(CC(NC(=O)OC(C)(C)C)C3)C1)C(=O)c1cccc(c1)S(=O)(=O)N2 (some centres unmarked) [Compound 201]	++ (++ is 30-60%)	< 1000
Cc1cccc(C)c1-c1nc2nc(c1C)OC[C@@H](CCC(C)(C)O)NC(=O)c1cccc(c1)S(=O)(=O)N2 [Compound 107, (11R)-6-(2,6-Dimethylphenyl)-11-(3-hydroxy-3-methyl-butyl)-7-methyl-2,2-dioxo-9-oxa-2λ^6-thia-3,5,12,19-tetrazatricyclo[12.3.1.14,8]nonadeca-1(18),4(19),5,7,14,16-hexaen-13-one]	+ (+ is <30%)	3000 to 30000
Cc1cccc(C)c1-c1nc2nc(c1C)OC[C@@H](CC1(C(F)(F)F)CC1)NC(=O)c1cccc(c1)S(=O)(=O)N2 [Compound 103]	+++ (+++ is >60%)	< 1000
Cc1cccc(C)c1-c1nc2nc(c1C)O[C@@H]1CN(C3CC4(CCCCC4)C3)C[C@H]1NC(=O)c1cccc(c1)S(=O)(=O)N2 [Compound 104, (3R,7R)-19-(2,6-dimethylphenyl)-20-methyl-5-{spiro[3.5]nonan-2-yl}-2-oxa-15λ^6-thia-5,8,16,18,21-pentaazatetracyclo[15.3.1.110,14.03,7]docosa-1(21),10,12,14(22),17,19-hexaene-9,15,15-trione]	+++ (+++ is >60%)	< 1000
Cc1cccc(C)c1-c1nc2nc(c1-c1cnn(C(C)C)c1)O[C@H](C)CNC(=O)c1cccc(c1)S(=O)(=O)N2 [Compound 147]	++ (++ is 30-60%)	3000 to 30000
Cc1cccc(C)c1-c1nc2nc(c1C)OC[C@@H](CC1(C(F)(F)F)CC1)N(C1CC3(CC(N)C3)C1)C(=O)c1cccc(c1)S(=O)(=O)N2 (some centres unmarked) [Compound 93]	+++ (+++ is >60%)	< 1000
Cc1cccc(C)c1-c1nc2nc(c1C)OC[C@@H](CC(C)C)N(C1CC3(CCN(C)CC3)C1)C(=O)c1cccc(c1)S(=O)(=O)N2 [Compound 74]	+++ (+++ is >60%)	< 1000
COc1cccc(-c2c3nc(nc2-c2c(C)cccc2C)NS(=O)(=O)c2cccc(c2)C(=O)NC[C@@H](C)O3)c1 [Compound 122, (10R)-6-(2,6-Dimethylphenyl)-7-(3-methoxyphenyl)-10-methyl-2,2-dioxo-9-oxa-2λ^6-thia-3,5,12,19-tetrazatricyclo[12.3.1.14,8]nonadeca-1(18),4(19),5,7,14,16-hexaen-13-one]	+++ (+++ is >60%)	< 1000
Cc1cccc(C)c1-c1nc2nc(c1C)OC[C@@H](CC(C)(C)C)N(C1CC3(CC(N)C3)C1)C(=O)c1cccc(c1)S(=O)(=O)N2 (some centres unmarked) [Compound 96]	+++ (+++ is >60%)	< 1000

Results, then the molecule that gave them:

Ent. B Max Activity	EC50 [nM]	Structure (SMILES)
+++ (+++ is >60%)	3000 to 30000	Cc1cccc(C)c1-c1nc2nc(c1C)OC[C@@H](CC(C)(C)O)NC(=O)c1cccc(c1)S(=O)(=O)N2 [Compound 105, (11R)-6-(2,6-Dimethylphenyl)-11-(2-hydroxy-2-methyl-propyl)-7-methyl-2,2-dioxo-9-oxa-2λ^6-thia-3,5,12,19-tetrazatricyclo[12.3.1.14,8]nonadeca-1(18),4(19),5,7,14,16-hexaen-13-one]
++ (++ is 30-60%)	< 1000	Cc1cccc(C)c1-c1nc2nc(c1C)OCCN(C1CC3(CC(NC(=O)OC(C)(C)C)C3)C1)C(=O)c1cccc(c1)S(=O)(=O)N2 (centres unmarked) [Compound 37]
++ (++ is 30-60%)	< 1000	Cc1cccc(C)c1-c1nc2nc(c1F)OC[C@@H](CC(C)C)N(C1CC3(CCNCC3)C1)C(=O)c1cccc(c1)S(=O)(=O)N2 [Compound 186]
+++ (+++ is >60%)	< 1000	Cc1cccc(C)c1-c1nc2nc(c1C)OC[C@@H](CC(C)C)N(C1CC3(CC(CO)C3)C1)C(=O)c1cccc(c1)S(=O)(=O)N2 (stereo in doubt) [Compound 67]
+++ (+++ is >60%)	< 1000	COCCN1CCC2(CC1)CC(N1C(=O)c3cccc(c3)S(=O)(=O)Nc3nc(c(C)c(-c4c(C)cccc4C)n3)OC[C@H]1CC(C)C)C2 [Compound 55, (11R)-6-(2,6-Dimethylphenyl)-11-isobutyl-12-[7-(2-methoxyethyl)-7-azaspiro[3.5]nonan-2-yl]-7-methyl-2,2-dioxo-9-oxa-2λ^6-thia-3,5,12,19-tetrazatricyclo[12.3.1.14,8]nonadeca-1(18),4(19),5,7,14,16-hexaen-13-one]
+++ (+++ is >60%)	< 1000	Cc1cccc(C)c1-c1nc2nc(c1C)OC[C@@H](CC(C)(C)C)N(C1CC3(CC(NC(=O)OC(C)(C)C)C3)C1)C(=O)c1cccc(c1)S(=O)(=O)N2 (single isomer, unassigned) [Compound 60]
+++ (+++ is >60%)	< 1000	CCc1c2nc(nc1-c1c(C)cccc1C)NS(=O)(=O)c1cccc(c1)C(=O)N[C@@H]1CN(C3CC4(CCCCC4)C3)C[C@H]1O2 [Compound 115]
+++ (+++ is >60%)	< 1000	COC1CC(N2C(=O)c3cccc(c3)S(=O)(=O)Nc3nc(c(C)c(-c4c(C)cccc4C)n3)OC[C@H]2CC2(C(F)(F)F)CC2)C1 (some centres unmarked) [Compound 100]
